# Data from US20110097274A1, “Carbon-11 and fluorine-18 labeled radioligands for positron emission tomography (PET) imaging for the brain serotonin transporters” (priority 2002, published 2011).
# Values joined by “and” are separate entries in the source; they are usually repeats but may differ in a detail not shown here. Identical values can stand only once.
# System: SERT
# Assay: Baboon PET imaging: brain uptake, kinetic analysis and SERT parameters
# Format: in vivo
# Description: PET imaging protocol: PET experiments (n=20) were performed at Columbia University. Two adult male baboons (baboon A and B) were studied twice with each of the 5 radioligands (4 experiments per radioligand). All experiments took place within a 9-month period. Baboons A and B were 31 kg and 21 kg in weight at the beginning of the experimental period and 28 and 22 kg at the end, respectively. Test and retest experiments with the same radioligand were obtained on different days, with an average interval of 117±53 days.
# Experiments were performed according to protocols approved by the Columbia-Presbyterian Medical Center Institutional Animal Care and Use Committee. Fasted animals were immobilized with ketamine (10 mg/kg i.m.), and anesthetized with 1.8% isoflurane via an endotracheal tube. Vital signs were monitored every 10 minutes and the temperature was kept constant at 37° C. with heated water blankets. An i.v. perfusion line was used for hydration and injection of radioligands and nonradioactive drugs. A catheter was inserted in a femoral artery for arterial blood sampling. Head was positioned at the center of the field of view as defined by imbedded laser lines. PET imaging was performed with the ECAT EXACT HR+PET scanner (Siemens/CTI, Knoxville, Tenn.). In 3D mode, this camera provides an in-plane resolution of 4.3 mm, 4.5 mm, 5.4 mm and 8.0 mm full width at half maximum (FWHM) at a distance of 0, 1, 10 and 20 cm from the center of the field of view, respectively (Brix et al., 1997). A 15 minute transmission scan was obtained prior to radioligand injection for attenuation correction. Activity was injected i.v. over 30 seconds. […] Emission data was collected in the 3D mode for 91 minutes as 21 successive frames of increasing duration (6*10 seconds, 2*1 minutes, 4*2 minutes, 2*5 minutes, and 7*10 minutes).
# Image analysis: A Magnetic Resonance Image (MRI) of each baboon's brain was obtained for the purpose of identifying the regions of interest (ROI) (T1-weighted axial MRI sequence, acquired parallel to the anterior-posterior commissure, TR 34 msec, TE 5 msec, flip angle of 45 degrees, slice thickness is 1.5 mm, zero gap, matrix 1.5 mm×1 mm×1 mm voxels). The following regions were drawn on the MR images: cerebellum, midbrain, thalamus, striatum, hippocampus, temporal cortex, cingulate cortex and occipital cortex.
# PET emission data were attenuation-corrected using the transmission scan, and frames were reconstructed using a Shepp filter (cutoff 0.5 cycles/projection rays). Reconstructed image files were then processed using the image analysis software MEDx (Sensor Systems, Inc., Sterling, Va.). An image was created by summing all the frames, and this summed image was used to define the registration parameters with the MR image, using between-modality automated image registration (AIR) algorithm (Woods et al., 1993). Registration parameters were then applied to the individual frames for registration to the MR data set. Regional boundaries were transferred to the individual registered PET frames, and time-activity curves were measured and decay-corrected. Right and left regions were averaged. For a given animal, the same regions were used for all radioligands.
# Brain uptake: Total brain uptake was expressed as percentage of the injected dose per gram of tissue (% ID g^−1) in a region encompassing the entire brain. Regional peak time was defined as the mid-time of the frame associated with the highest activity value. To estimate the degree of wash-out from the brain captured during the scan interval (91 minutes), the decrease in activity from the peak frame to the last frame was calculated and expressed in percentage of the peak activity.
# Kinetic analysis: Regional total distribution volumes (VT, mL g^−1) were derived with kinetic analysis of the regional time-activity curves, using the arterial plasma concentrations as input function. […]
# [1] = BP = VT ROI − VT CER, baboons, mean ± SD of four experiments
# [2] = Mean ± SD of four experiments in two baboons
# [3] = baboons, mean ± SD of four experiments
# [4] = last scan 90 minutes, baboons, mean ± SD of four experiments
# [5] = one-tissue compartment model, baboons, mean ± SD of four experiments
structure (smiles),measurement,setting,value
[11CH3]Sc1ccc([C@H]2CN3CCC[C@H]3c3ccccc32)cc1 [[^11C]McN 5652],Binding potential Cingulate Cortex,[1],5.4 ± 0.8 mL/g
same,Binding potential Hippocampus,[1],9.5 ± 2.3 mL/g
same,Binding potential Midbrain,[1],25.9 ± 6.1 mL/g
same,Binding potential Occipital Cortex,[1],2.9 ± 1.6 mL/g
same,Binding potential Striatum,[1],17.6 ± 4.0 mL/g
same,Binding potential Temporal Cortex,[1],6.2 ± 1.8 mL/g
same,Binding potential Thalamus,[1],28.8 ± 6.9 mL/g
same,Equilibrium specific to non-specific partition coefficient (V3″) Cingulate Cortex,"Baboon A, single experiment",0.21 and 0.17
same,Equilibrium specific to non-specific partition coefficient (V3″) Hippocampus,"Baboon A, single experiment",0.41 and 0.29
same,Equilibrium specific to non-specific partition coefficient (V3″) Midbrain,"Baboon A, single experiment",1.16 and 0.78
same,Equilibrium specific to non-specific partition coefficient (V3″) Occipital Cortex,"Baboon A, single experiment",0.13 and 0.18
same,Equilibrium specific to non-specific partition coefficient (V3″) Striatum,"Baboon A, single experiment",0.81 and 0.49
same,Equilibrium specific to non-specific partition coefficient (V3″) Temporal Cortex,"Baboon A, single experiment",0.34 and 0.23
same,Equilibrium specific to non-specific partition coefficient (V3″) Thalamus,"Baboon A, single experiment",1.17 and 0.82
same,Equilibrium specific to non-specific partition coefficient (V3″) Cingulate Cortex,"Baboon B, single experiment",0.20
same,Equilibrium specific to non-specific partition coefficient (V3″) Hippocampus,"Baboon B, single experiment",0.38 and 0.30
same,Equilibrium specific to non-specific partition coefficient (V3″) Midbrain,"Baboon B, single experiment",1.00 and 0.80
same,Equilibrium specific to non-specific partition coefficient (V3″) Occipital Cortex,"Baboon B, single experiment",0.05 and 0.07
same,Equilibrium specific to non-specific partition coefficient (V3″) Striatum,"Baboon B, single experiment",0.66 and 0.60
same,Equilibrium specific to non-specific partition coefficient (V3″) Temporal Cortex,"Baboon B, single experiment",0.18 and 0.16
same,Equilibrium specific to non-specific partition coefficient (V3″) Thalamus,"Baboon B, single experiment",1.15 and 1.00
same,Equilibrium specific to non-specific partition coefficient (V3″) Cingulate Cortex,[2],0.19 and 0.19 ± 0.02
same,Equilibrium specific to non-specific partition coefficient (V3″) Hippocampus,[2],0.34 and 0.34 ± 0.06
same,Equilibrium specific to non-specific partition coefficient (V3″) Midbrain,[2],0.94 and 0.94 ± 0.18
same,Equilibrium specific to non-specific partition coefficient (V3″) Occipital Cortex,[2],0.11 and 0.11 ± 0.06
same,Equilibrium specific to non-specific partition coefficient (V3″) Striatum,[2],0.64 and 0.64 ± 0.13
same,Equilibrium specific to non-specific partition coefficient (V3″) Temporal Cortex,[2],0.23 and 0.23 ± 0.08
same,Equilibrium specific to non-specific partition coefficient (V3″) Thalamus,[2],1.04 and 1.04 ± 0.16
same,"K1, average of all regions and all animals",baboons,0.93 ± 0.18 mL/g/min
same,"VT, average of all regions and all animals",baboons,39.7 ± 11.8 mL/g
same,"k2, average of all regions and all animals",baboons,0.025 ± 0.008 min⁻¹
same,Mean regional peak uptake time,"baboons, mean of all regions",28 ± 12 min
same,Mean regional wash-out (% decrease between peak time and last scan),"baboons, mean of all regions",24±13%
same,Regional uptake peak time Cerebellum,[3],15 ± 3 min
same,Regional uptake peak time Cingulate Cortex,[3],17 ± 3 min
same,Regional uptake peak time Hippocampus,[3],36 ± 8 min
same,Regional uptake peak time Midbrain,[3],39 ± 13 min
same,Regional uptake peak time Occipital Cortex,[3],17 ± 3 min
same,Regional uptake peak time Striatum,[3],34 ± 10 min
same,Regional uptake peak time Temporal Cortex,[3],27 ± 7 min
same,Regional uptake peak time Thalamus,[3],41 ± 6 min
same,Total brain uptake at 45 min,"baboons, region encompassing the entire brain",0.016±0.002 % ID g^−1
same,"Regional activity wash-out: % decrease from peak to last scan, Cerebellum",[4],44 ± 6%
same,"Regional activity wash-out: % decrease from peak to last scan, Cingulate Cortex",[4],34 ± 3%
same,"Regional activity wash-out: % decrease from peak to last scan, Hippocampus",[4],16 ± 3%
same,"Regional activity wash-out: % decrease from peak to last scan, Midbrain",[4],8 ± 5%
same,"Regional activity wash-out: % decrease from peak to last scan, Occipital Cortex",[4],34 ± 3%
same,"Regional activity wash-out: % decrease from peak to last scan, Striatum",[4],18 ± 7%
same,"Regional activity wash-out: % decrease from peak to last scan, Temporal Cortex",[4],24 ± 6%
same,"Regional activity wash-out: % decrease from peak to last scan, Thalamus",[4],12 ± 4%
same,K1 Cerebellum,[5],1.05 ± 0.20 mL/g/min
same,K1 Cingulate Cortex,[5],1.01 ± 0.24 mL/g/min
same,K1 Hippocampus,[5],0.74 ± 0.12 mL/g/min
same,K1 Midbrain,[5],0.92 ± 0.12 mL/g/min
same,K1 Occipital Cortex,[5],0.95 ± 0.18 mL/g/min
same,K1 Striatum,[5],0.95 ± 0.12 mL/g/min
same,K1 Temporal Cortex,[5],0.83 ± 0.19 mL/g/min
same,K1 Thalamus,[5],1.03 ± 0.15 mL/g/min
same,K2 Cerebellum,[5],0.038 ± 0.007 min⁻¹
same,K2 Cingulate Cortex,[5],0.031 ± 0.007 min⁻¹
same,K2 Hippocampus,[5],0.020 ± 0.003 min⁻¹
same,K2 Midbrain,[5],0.017 ± 0.003 min⁻¹
same,K2 Occipital Cortex,[5],0.031 ± 0.006 min⁻¹
same,K2 Striatum,[5],0.021 ± 0.003 min⁻¹
same,K2 Temporal Cortex,[5],0.025 ± 0.006 min⁻¹
same,K2 Thalamus,[5],0.019 ± 0.003 min⁻¹
same,"VT Cerebellum (VT CER, nonspecific distribution volume)",[5],27.7 ± 4.0 mL/g
same,VT Cingulate Cortex,[5],33.1 ± 4.7 mL/g
same,VT Hippocampus,[5],37.2 ± 5.9 mL/g
same,VT Midbrain,[5],53.6 ± 9.3 mL/g
same,VT Occipital Cortex,[5],30.6 ± 3.9 mL/g
same,VT Striatum,[5],45.3 ± 7.0 mL/g
same,VT Temporal Cortex,[5],33.9 ± 4.2 mL/g
same,VT Thalamus,[5],56.5 ± 10.3 mL/g
